Assay results reported in patent US6294547A, “Naphthyridine deratives or salts thereof” (Nippon Kayaku Kabushiki Kaisha, priority 1997, dated 2001).
pIC50: −log10 of the molar value. Where a name gives a salt, the structure may show the parent alone.

Tests used:
NK-2 receptors [1] = target: T1, NK-2 receptors (Rattus norvegicus, UniProt P16610); assay: Binding to NK-2 receptors (inhibition of radioactive 125I-neurokinin A binding); format: Fischer strain male rats (duodenum membranes); settings: rat duodenum membrane; 125I-neurokinin A 1×10^-9 M; 90 min, room temperature; read-out: IC50 of drugs in binding of radioactive neurokinin A
T1 construct: Duodenums isolated from Fischer strain male rats were homogenized; from tissue; host or cells: duodenum membranes of male Fischer rats
T1 sequence (P16610 1-390): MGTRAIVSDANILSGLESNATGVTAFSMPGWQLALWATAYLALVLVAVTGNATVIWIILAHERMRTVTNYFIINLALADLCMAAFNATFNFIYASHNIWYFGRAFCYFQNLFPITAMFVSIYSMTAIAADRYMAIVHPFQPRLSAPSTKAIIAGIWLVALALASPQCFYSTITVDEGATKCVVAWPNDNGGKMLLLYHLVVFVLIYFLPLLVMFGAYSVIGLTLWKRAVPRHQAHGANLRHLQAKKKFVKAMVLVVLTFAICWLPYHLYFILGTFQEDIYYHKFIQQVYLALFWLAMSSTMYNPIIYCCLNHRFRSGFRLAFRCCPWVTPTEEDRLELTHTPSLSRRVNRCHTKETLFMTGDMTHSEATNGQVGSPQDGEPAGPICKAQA
Protocol: Duodenums isolated from Fischer strain male rats were homogenized in 50 mM Tris-hydrochloric acid buffer (pH 7.4) containing saccharose (100 mg/ml) and ethylenediaminetetraacetic acid (1 mM), and the resulting homogenate was centrifuged at 48,000 g and 4° C. for 20 minutes. The pellet thus obtained was washed three times with 10 times as much 50 mM Tris-hydrochloric acid buffer (pH 7.4) containing KCl (300 mM) and ethylenediaminetetraacetic acid (10 mM) as the pellet by volume, and the resulting membrane preparation was suspended in 10 times as much 50 mM Tris-hydrochloric acid buffer (pH 7.4) as the membrane preparation by volume and stored at -80° C. until use. The membrane preparation (20 mg/ml) was incubated together with a radioactive ligand ^125 I-neurokinin A (1×10^-9 M) at room temperature for 90 minutes in the presence of each drug or a solvent therefor in 50 mM Tris-hydrochloricacid buffer (pH 7.4) containing bovine serum albumin (10 mg/ml), bacitracin (40 μg/ml), leupeptin (4 μg/ml), chymostatin (50 μg/ml), antipain (1×10^-4 M) and MnCl2 (1 mM). […] Then, radioactivity in the filter was measured with a gamma counter. The 50% inhibitory concentration (IC50) of the drug was determined by means of a regression line by considering radioactivity in the presence of Nle10 neurokinin A (4-10) (3×10^-6 M) to be due to nonspecific binding, and measuring the rate of inhibition of specific binding by the drug by carrying out a control experiment using the solvent alone.

NK-2 receptors [2] = assay: Inhibitory effect on bronchoconstriction caused by stimulation of NK-2 receptors (Nle10 neurokinin A (4-10)); format: in vivo, Hartley strain male guinea pigs
Protocol: There were used non-treated Hartley strain male guinea pigs and Hartley strain male guinea pigs received to active sensitization by subcutaneous administration of 30 mg/kg of ovalbumin 14 to 21 days before. The guinea pigs were anesthetized with pentobarbital and a tube was inserted into the trachea of each guinea pig. The guinea pigs were subjected to positive pressure respiration by means of an artificial respiratory apparatus at 10 ml/kg and 60 times/minute. The pressure in the edge of the tube in the trachea was measured as an indication of bronchoconstriction. Spontaneous respiration was inhibited by administering succinylcholine. The non-treated guinea pigs were repeatedly and intravenously injected with 2 nmol/kg of Nle10 neurokinin A (4-10), a specific stimulating agent for NK-2 receptors at intervals of 10 minutes. After the bronchoconstriction thus caused became stable, each drug was administered intravenously, orally or in duodenum. Nle10 neurokinin A (4-10) was intravenously injected again 3 minutes after the intravenous administration or 50 minutes after the oral administration or the administration in duodenum. The rate of inhibition by the drug was determined relative to the bronchoconstriction before the drug administration.

Mouse = assay: Toxic effect on mouse, intravenous; format: in vivo; settings: 65 μmol/kg intravenous
From the text: The toxicity of the compounds of the present invention was investigated.

[3] = 0.5 μmol/kg intravenous, 3 min after administration
[4] = 8 μmol/kg oral, 50 min after administration
[5] = 1 μmol/kg intravenous, 3 min after administration

| Structure (SMILES) | pIC50 (NK-2 receptors [1]) | Inhibition (rate), stimulation of NK-2 receptors (NK-2 receptors [2]; [3]) [%] | Inhibition (rate), stimulation of NK-2 receptors (NK-2 receptors [2]; 5 μmol/kg in duodenum, 50 min after administration) [%] | Inhibition (rate), stimulation of NK-2 receptors (NK-2 receptors [2]; 0.6 μmol/kg intravenous, 3 min after administration) [%] | Inhibition (rate), stimulation of NK-2 receptors (NK-2 receptors [2]; [4]) [%] | Inhibition (rate), stimulation of NK-2 receptors (NK-2 receptors [2]; [5]) [%] | Toxicity (Mouse) |
| --- | --- | --- | --- | --- | --- | --- | --- |
| COC(=O)Nc1c2c(nc3ccccc13)CCN(CCC(CN(C)C(=O)c1ccccc1)c1ccc(Cl)c(Cl)c1)C2 (single isomer, unassigned) [Example 41, 2-[(-)-4-(N-benzoyl-N-methyl)amino-3-(3,4-dichlorophenyl)butyl]-10-methoxycarbonylamino-1,2,3,4-tetrahydro-benzo[b][1,6]naphthyridine fumarate] | 7.52 | 97.0 | 62.0 |  |  |  |  |
| CN(CC(CCN1CCc2nc3ccccc3c(C(N)=O)c2C1)c1ccc(Cl)c(Cl)c1)C(=O)c1ccccc1 (single isomer, unassigned) [Example 29, 2-[(-)-4-(N-benzoyl-N-methyl)amino-3-(3,4-dichlorophenyl)butyl]-1,2,3,4-tetrahydro-benzo-[b][1,6]naphthyridine-10-carboxamide fumarate] | 7.23 |  |  | 100.0 | 43.5 |  |  |
| COC(=O)c1c2c(nc3ccccc13)CCN(CCC(CN(C)C(=O)c1ccccc1)c1ccc(Cl)c(Cl)c1)C2 (single isomer, unassigned) [Example 31, 2-[(-)-4-(N-benzoyl-N-methyl1amino-3-(3,4-dichlorophenyl)butyl]-10-methoxycarbonyl-1,2,3,4-tetrahydro-benzo[b][1,6]naphthyridine fumarate] | 7.02 |  |  |  | 53.5 | 100.0 |  |
| CN(CC(CCN1CCc2nc3ccccc3c(CO)c2C1)c1ccc(Cl)c(Cl)c1)C(=O)c1ccccc1 (single isomer, unassigned) [Example 37, 2-[(-)-4-(N-benzoyl-N-methyl)amino-3-(3,4-dichlorophenylbutyl]-10-hydroxymethyl-1,2,3,4-tetrahydro-benzo-[b][1,6]naphthyridine fumarate] | 7.05 |  |  |  |  | 97.5 |  |
| CC(=O)Nc1c2c(nc3ccccc13)CCN(CCC(CN(C)C(=O)c1ccccc1)c1ccc(Cl)c(Cl)c1)C2 (single isomer, unassigned) [Example 27, 2-[(-)-4-(N-benzoyl-N-methyl)amino-3-(3-4-dichlorophenylbutyl]-10-methylcarbonylamino-1,2,3,4-tetrahydro-benzo[b][1,6]naphthyridine fumarate] | 7.74 | 100.0 |  |  | 81.5 |  | None |
| COC(=O)N(C)c1c2c(nc3ccccc13)CCN(CCC(CN(C)C(=O)c1ccccc1)c1ccc(Cl)c(Cl)c1)C2 (single isomer, unassigned) [Example 43, 2-[(-)-4-(N-benzoyl-N-methyl)amino-3-(3,4-dichlorophenyl)butyl]-10-(N-methyl-N-methoxycarbonyl)-amino-1,2,3,4-tetrahydro-benzo[b][1,6]naphthyridine fumarate] | 7.18 | 86.2 |  |  |  |  |  |
| CN(CC(CCN1CCc2nc3ccccc3c(-c3ccccc3)c2C1)c1ccc(Cl)c(Cl)c1)C(=O)c1ccccc1 (single isomer, unassigned) [Example 39, 2-[(-)-4-(N-benzoyl-N-methyl)amino-3-(3,4-dichlorophenyl)butyl]-10-phenyl-1,2,3,4-tetrahydro-benzo[b][1,6]naphthyridine fumarate] | 7.15 | 70.0 |  |  |  |  |  |
| CN(CC(CCN1CCc2nc3ccccc3c(C(=O)O)c2C1)c1ccc(Cl)c(Cl)c1)C(=O)c1ccccc1 (single isomer, unassigned) [Example 33, 2-[(-)-4-(N-benzoyl-N-methyl)amino-3-(3,4-dichlorophenyl)butyl]-1,2,3,4-tetrahydro-benzo-[b][1,6]naphthyridine-10-carboxylic acid fumarate] | 7.03 |  |  |  |  | 57.5 |  |
